One assay addresses T1, ovine COX-1 (Ovis aries, UniProt P05979).
T1 construct: purchased Cayman Chemical 560101
T1 sequence (P05979 25-600): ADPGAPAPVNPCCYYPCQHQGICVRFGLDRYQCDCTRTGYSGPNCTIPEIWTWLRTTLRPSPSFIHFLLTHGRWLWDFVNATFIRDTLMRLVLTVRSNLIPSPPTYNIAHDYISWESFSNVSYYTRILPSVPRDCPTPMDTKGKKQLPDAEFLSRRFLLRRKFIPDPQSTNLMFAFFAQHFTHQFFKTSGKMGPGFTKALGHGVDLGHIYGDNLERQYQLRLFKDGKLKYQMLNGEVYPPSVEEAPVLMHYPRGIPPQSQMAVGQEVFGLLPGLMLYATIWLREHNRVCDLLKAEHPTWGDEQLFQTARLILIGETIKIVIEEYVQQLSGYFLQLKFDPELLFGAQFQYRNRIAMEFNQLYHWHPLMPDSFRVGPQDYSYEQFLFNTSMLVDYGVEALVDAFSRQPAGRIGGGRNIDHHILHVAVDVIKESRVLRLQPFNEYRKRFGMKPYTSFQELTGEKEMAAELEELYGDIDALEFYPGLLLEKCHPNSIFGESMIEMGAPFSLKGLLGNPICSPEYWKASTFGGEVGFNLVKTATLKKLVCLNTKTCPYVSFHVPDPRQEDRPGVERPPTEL
Kind of assay: In vitro COX-1 inhibition, enzyme immuno assay (EIA) kit. Format: biochemical. The settings on record: ovine COX-1, EIA, duplicate determinations. The method, then: (§1) The exemplary conjugates shown in FIGS. 5 A-E, to which reference is now made, were tested for inhibition of COX-1 and COX-2 to in-vitro activity The ability of the test compounds listed in the Table 1 to inhibit ovine COX-1 and COX-2 (IC50 values, […]) was determined using an enzyme immuno assay (EIA) kit catalog number 560101, Cayman Chemical, Ann Arbor, Mich., USA) according to the manufacturers instructions.
(§2) Cyclooxygenase catalyzes the first step in the biosynthesis of arachidonic acid (AA) to PGH2. PGF2α, produced from PGH2 by reduction with stannous chloride, is measured by enzyme immunoassay (ACETM competitive EIA).
(§3) Stock solutions of test compounds were dissolved in a minimum volume of DMSO. Briefly, to a series of supplied reaction buffer solutions (960 μL, 0.1M Tris-HCl pH 8.0 containing 5 mM EDTA and 2 mM phenol) with either COX-1 or COX-2 (10 μL) enzyme in the presence of heme (10 μL) were added 10 μL of various concentrations of test drug solutions (0.01, 0.1, 1, 10, 50, and 100 μM in a final volume of 1 mL). These solutions were incubated for a period of 5 min at 37° C. after which 10 μL of AA (100 μM) solution were added and the COX reaction was stopped by the addition of 50 μL of 1M HCl after 2 min. PGF2α, produced from PGH2 by reduction with stannous chloride was measured by enzyme immunoassay.
(§4) This assay is based on the competition between PGs and a PG-acetylcholinesterase conjugate (PG tracer) for a limited amount of PG antiserum. The amount of PG tracer that is able to bind to the PG antiserum is inversely proportional to the concentration of PGs in the wells since the concentration of PG tracer is held constant while the concentration of PGs varies. The concentration of the test compound causing 50% inhibition (IC50, μM) was calculated from the concentration-inhibition response curve (duplicate determinations).

In assay [1] the test system is carrageenin-induced edema of the hind paw. Kind of assay: Carrageenin-induced paw edema in rats. The conditions noted are these: for Swelling volume: rat hind paw; for decrease in the edema size: after 1 h, versus control. On the technique in general: The carrageenan paw model is a standard test of acute inflammation.
The target in the next assay is T2, ovine COX-2 (Ovis aries, UniProt P79208).
T2 construct: purchased Cayman Chemical 560101
T2 sequence (P79208 17-603): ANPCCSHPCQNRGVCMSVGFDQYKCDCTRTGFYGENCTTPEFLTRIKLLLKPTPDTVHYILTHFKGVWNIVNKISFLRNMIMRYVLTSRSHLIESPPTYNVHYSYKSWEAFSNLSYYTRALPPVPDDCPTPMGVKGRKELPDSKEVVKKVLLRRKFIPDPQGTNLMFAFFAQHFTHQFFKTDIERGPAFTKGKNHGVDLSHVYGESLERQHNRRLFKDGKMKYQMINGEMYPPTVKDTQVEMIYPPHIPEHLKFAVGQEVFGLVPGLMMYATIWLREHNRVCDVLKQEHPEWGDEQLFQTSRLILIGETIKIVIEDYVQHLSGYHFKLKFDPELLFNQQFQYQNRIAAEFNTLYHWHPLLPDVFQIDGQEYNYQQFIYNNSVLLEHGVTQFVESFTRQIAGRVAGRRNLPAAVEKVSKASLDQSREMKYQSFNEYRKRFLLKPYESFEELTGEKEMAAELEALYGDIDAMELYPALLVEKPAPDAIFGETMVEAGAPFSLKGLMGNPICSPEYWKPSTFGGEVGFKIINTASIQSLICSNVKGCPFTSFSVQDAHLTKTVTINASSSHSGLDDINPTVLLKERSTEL
Description: In vitro COX-2 inhibition, enzyme immuno assay (EIA) kit. Type of assay: biochemical. The settings on record: for pIC50: ovine COX-2, EIA, duplicate determinations; for Ration (COX ½): ratio of COX-1 IC50 to COX-2 IC50. The method, then: as §1, §2, §3, §4

Assay [2] concerns inflammatory bowel disease IBD (ulcerative colitis). Description: Tri-nitrobenzene sulfunic acid induced ulcerative colitis in rats, MPO activity in colon. Format: in vivo, Sprague dawley rats. The conditions noted are these: 25 mg/kg rectally, inflamed area of the colon, FIG. 7. The procedure:
The exemplary RNX006 compound shown in FIG. 5 F, to which reference is now made, was tested for the effect on the inflammatory bowel disease IBD (ulcerative colitis) in rats as follows. Male Sprague dawley rats were used in this study. Briefly, ulcerative colitis was induced by tri-nitrobenzene sulfunic acid as described in the literature. Rats were divided into 4 groups, (−) sham (healthy, (+) control ulcerative colitis (UC, not treated), UC treated with RNX006 (25 mg/kg), and UC treated with 5-amino salicylic acid (5-ASA 25 mg/kg). RNX006 and 5-ASA were administered rectally during all the period of the experiment. At the end of the experiment animals were sacrificed and the colon was isolated to test the severity of the inflammation. The severity of the inflammation was tested by measurement of the myeloperoxidase activity (MPO activity) in the inflamed area of the colon.

pIC50: −log10 of the molar value.

For orientation: pIC50 means −log10 of the IC50, conventionally taken in molar units. A low value points to a large IC50. Take `CCCCCCCC/C=C/CCCCCCCC(=O)N1CC(O)CC1C(=O)O` (stereo not drawn) [RNX001]: the pIC50 on ovine COX-1 was 4.14; against ovine COX-2, 5.89. The Swelling volume in assay [1] (1 hr after carrageenin) amounted to 1.1 ± 0.09 mL; in assay [1] (2 hr after carrageenin), 1.3 ± 0.13 mL; in assay [1] (3 hr after carrageenin) it was 1.9 ± 0.1 mL; in assay [1] (4 hr after carrageenin) it was 1.8 ± 0.13 mL. In assay [1], the “decrease in the edema size” value is on record as 31%. Further, on ovine COX-2, the “Ration (COX ½)” value is 55.7.

With `CCCCC/C=C/C/C=C/CCCCCCCC(=O)N1CC(O)CC1C(=O)O` (stereo not drawn) [RNX002], the pIC50 against ovine COX-1 is 4.28; at ovine COX-2 it was 6.29. In addition, the Swelling volume in assay [1] (1 hr after carrageenin) was 0.9 ± 0.06 mL; in assay [1] (2 hr after carrageenin), 1.6 ± 0.09 mL; in assay [1] (3 hr after carrageenin) it was 2.3 ± 0.11 mL; in assay [1] (4 hr after carrageenin) it was 2.1 ± 0.13 mL. The “decrease in the edema size” value in assay [1] was 43.4%. Further, the “Ration (COX ½)” value at ovine COX-2 was 103.3.

Regarding `CC/C=C\C/C=C/C/C=C/C/C=C/C/C=C/CCCC(=O)N1CC(O)CC1C(=O)O` (stereo not drawn) [RNX004], the negative-log IC50 (pIC50) against ovine COX-1 was 4.40; at ovine COX-2 it was 7.07. Also, at ovine COX-2, the “Ration (COX ½)” value is on record as 464.11.

Consider `CC/C=C\C/C=C/C/C=C/C/C=C/C/C=C/C/C=C/CCC(=O)N1CC(O)CC1C(=O)O` (stereo not drawn) [RNX005], for which the negative logarithm of the IC50 (pIC50) at ovine COX-1 is 4.37; on ovine COX-2, 7.09. Besides, the “Ration (COX ½)” value on ovine COX-2 is reported as 528.68.

For `CCCCC/C=C/C/C=C/C/C=C/CCCCC(=O)NCCS(=O)(=O)O` [RNX006], in assay [2], the “MPO activity relatively to IBD rats treated with 5-ASA” value is given as “even a lower MPO activity” and the “MPO activity relatively to the (+) control of non-treated IBD rats” value is given as “significantly lower MPO activity”.
